Assay results reported in patent US9149038B2, “4-amino-6-(heterocyclic)picolinates and 6-amino-2-(heterocyclic)pyrimidine-4-carboxylates and their use as herbicides” (Dow AgroSciences LLC, priority 2013, dated 2015).
Like-named read-outs stand apart in the source and are kept apart here.

Tested on: Wheat and Barley and weed species
Assay: Post-Emergent Test III: postemergent herbicidal activity in wheat and barley, visual rating after 21 d and probit GR20/GR50/GR80/GR90 (Tables 9-13)
Type: in vivo
Details: for pest or weed control at 35 g/ha / pest or weed control at 70 g/ha / pest or weed control at 140 g/ha: post-emergence, 504 h
Description: Herbicidal evaluations were made visually on a scale of 0 to 100 where 0 represents no activity and 100 represents complete plant death.
Seeds of the desired test plant species were planted in Sun Gro MetroMix® 306 planting mixture, which typically has a pH of 6.0 to 6.8 and an organic matter content of about 30 percent, in plastic pots with a surface area of 103.2 square centimeters (cm^2). When required to ensure good germination and healthy plants, a fungicide treatment and/or other chemical or physical treatment was applied. The plants were grown for 7-36 days (d) in a greenhouse with an approximate 14 hour (h) photoperiod which was maintained at about 18° C. during the day and 17° C. during the night. Nutrients and water were added on a regular basis and supplemental lighting was provided with overhead metal halide 1000-Watt lamps as necessary. The plants were employed for testing when they reached the second or third true leaf stage.
A weighed amount, determined by the highest rate to be tested, of each test compound was placed in a 25 mL glass vial and was dissolved in 4 mL of a 97:3 v/v mixture of acetone and DMSO to obtain concentrated stock solutions. […] The concentrated stock solutions obtained were diluted with 20 mL of an aqueous mixture containing acetone, water, isopropyl alcohol, DMSO, Agri-Dex crop oil concentrate, and X-77 surfactant in a 48:39:10:1.5:1.5:0.02 v/v ratio to obtain spray solutions containing the highest application rates. Additional application rates were obtained by serial dilution of 12 mL of the high rate solution into a solution containing 2 mL of a 97:3 v/v mixture of acetone and DMSO and 10 mL of an aqueous mixture containing acetone, water, isopropyl alcohol, DMSO, Agri-Dex crop oil concentrate, and X-77 surfactant in a 48:39:10:1.5:1.5:0.02 v/v ratio to obtain ½×, ¼×, ⅛× and 1/16× rates of the high rate. Compound requirements are based upon a 12 mL application volume at a rate of 187 liters per hectare (L/ha). Formulated compounds were applied to the plant material with an overhead Mandel track sprayer equipped with 8002E nozzles calibrated to deliver 187 L/ha over an application area of 0.503 square meters at a spray height of 18 inches (43 cm) above the average plant canopy height. Control plants were sprayed in the same manner with the solvent blank.
The treated plants and control plants were placed in a greenhouse as described above and watered by subirrigation to prevent wash-off of the test compounds. After 21 d, the condition of the test plants as compared with that of the untreated plants was determined visually and scored on a scale of 0 to 100 percent where 0 corresponds to no injury and 100 corresponds to complete kill and are presented as indicated in Table 4.
By applying the well-accepted probit analysis as described by J. Berkson in Journal of the American Statistical Society, 48, 565 (1953) and by D. Finney in “Probit Analysis” Cambridge University Press (1952), herbicidal injury of a specific compound at various rates can be used to calculate GR20, GR50, GR80 and GR90 values, which are defined as growth reduction factors that correspond to the effective dose of herbicide required to provide plant growth reduction (GR) of 20 percent, 50 percent, 80 percent and 90 percent, respectively. Probit analysis was applied to data collected from multiple dose rates of individual compounds utilizing the procedures explained in the following examples. The data for some of the dose rates and analysis of all of the dose rates are captured in the following tables.

Compound: COC(=O)c1nc(-c2c(F)cc3c(c2F)OC(F)(F)O3)cc(N)c1Cl [Compound 46]
- GR50 ALOMY (ALOMY black-grass (Alopecurus myosuroides), growth reduction of 50%, probit analysis): 18 g ai/ha
- GR80 ALOMY (ALOMY black-grass (Alopecurus myosuroides), growth reduction of 80%, probit analysis): 35 g ai/ha
- GR90 ALOMY (ALOMY black-grass (Alopecurus myosuroides), growth reduction of 90%, probit analysis): 49 g ai/ha
- GR50 APESV (APESV bentgrass (Apera spica-venti), growth reduction of 50%, probit analysis): 88 g ai/ha
- GR80 APESV (APESV bentgrass (Apera spica-venti), growth reduction of 80%, probit analysis): >140 g ai/ha
- GR90 APESV (APESV bentgrass (Apera spica-venti), growth reduction of 90%, probit analysis): >140 g ai/ha
- GR20 HORVS (HORVS barley, spring (crop), growth reduction of 20%, probit analysis): 8 g ai/ha
- pest or weed control at 35 g/ha (Hordeum vulgare, HORVS barley, spring (crop), 35 g ai/ha, read-out: Visual Growth Reduction (%) 21 Days After Application HORVS): 45 to 59%
- pest or weed control at 70 g/ha (Hordeum vulgare, HORVS barley, spring (crop), 70 g ai/ha, read-out: Visual Growth Reduction (%) 21 Days After Application HORVS): 60 to 74%
- pest or weed control at 140 g/ha (Hordeum vulgare, HORVS barley, spring (crop), 140 g ai/ha, read-out: Visual Growth Reduction (%) 21 Days After Application HORVS): 85 to 94%
- Visual Growth Reduction (%) 21 Days After Application KCHSC (KCHSC kochia (Kochia scoparia), 35 g ai/ha): B (85-94)
- Visual Growth Reduction (%) 21 Days After Application KCHSC (KCHSC kochia (Kochia scoparia), 70 g ai/ha): A (95-100)
- Visual Growth Reduction (%) 21 Days After Application KCHSC (KCHSC kochia (Kochia scoparia), 140 g ai/ha): A (95-100)
- GR50 KCHSC (KCHSC kochia (Kochia scoparia), growth reduction of 50%, probit analysis): 1 g ai/ha
- GR80 KCHSC (KCHSC kochia (Kochia scoparia), growth reduction of 80%, probit analysis): 7 g ai/ha
- GR90 KCHSC (KCHSC kochia (Kochia scoparia), growth reduction of 90%, probit analysis): 17 g ai/ha
- GR50 LOLSS (LOLSS ryegrass, growth reduction of 50%, probit analysis): 91 g ai/ha
- GR80 LOLSS (LOLSS ryegrass, growth reduction of 80%, probit analysis): >140 g ai/ha
- GR90 LOLSS (LOLSS ryegrass, growth reduction of 90%, probit analysis): >140 g ai/ha
- GR50 SETVI (SETVI green foxtail (Setaria viridis), growth reduction of 50%, probit analysis): 106 g ai/ha
- GR80 SETVI (SETVI green foxtail (Setaria viridis), growth reduction of 80%, probit analysis): >140 g ai/ha
- GR90 SETVI (SETVI green foxtail (Setaria viridis), growth reduction of 90%, probit analysis): >140 g ai/ha
- GR20 TRZAS (TRZAS wheat, spring (crop), growth reduction of 20%, probit analysis): 10 g ai/ha
- pest or weed control at 35 g/ha (Triticum aestivum, TRZAS wheat, spring (crop), 35 g ai/ha, read-out: Visual Growth Reduction (%) 21 Days After Application TRZAS): 60 to 74%
- pest or weed control at 70 g/ha (Triticum aestivum, TRZAS wheat, spring (crop), 70 g ai/ha, read-out: Visual Growth Reduction (%) 21 Days After Application TRZAS): 75 to 84%
- pest or weed control at 140 g/ha (Triticum aestivum, TRZAS wheat, spring (crop), 140 g ai/ha, read-out: Visual Growth Reduction (%) 21 Days After Application TRZAS): 85 to 94%
- pest or weed control at 35 g/ha (ALOMY black-grass (Alopecurus myosuroides), 35 g ai/ha, read-out: Visual Growth Reduction (%) 21 Days After Application ALOMY): 60 to 74%
- pest or weed control at 70 g/ha (ALOMY black-grass (Alopecurus myosuroides), 70 g ai/ha, read-out: Visual Growth Reduction (%) 21 Days After Application ALOMY): 95 to 100%
- pest or weed control at 140 g/ha (ALOMY black-grass (Alopecurus myosuroides), 140 g ai/ha, read-out: Visual Growth Reduction (%) 21 Days After Application ALOMY): 95 to 100%
- pest or weed control at 35 g/ha (APESV bentgrass (Apera spica-venti), 35 g ai/ha, read-out: Visual Growth Reduction (%) 21 Days After Application APESV): 0 to 29%
- pest or weed control at 70 g/ha (APESV bentgrass (Apera spica-venti), 70 g ai/ha, read-out: Visual Growth Reduction (%) 21 Days After Application APESV): 45 to 59%
- pest or weed control at 140 g/ha (APESV bentgrass (Apera spica-venti), 140 g ai/ha, read-out: Visual Growth Reduction (%) 21 Days After Application APESV): 60 to 74%
- pest or weed control at 35 g/ha (LOLSS ryegrass, 35 g ai/ha, read-out: Visual Growth Reduction (%) 21 Days After Application LOLSS): 0 to 29%
- pest or weed control at 70 g/ha (LOLSS ryegrass, 70 g ai/ha, read-out: Visual Growth Reduction (%) 21 Days After Application LOLSS): 45 to 59%
- pest or weed control at 140 g/ha (LOLSS ryegrass, 140 g ai/ha, read-out: Visual Growth Reduction (%) 21 Days After Application LOLSS): 60 to 74%
- pest or weed control at 35 g/ha (SETVI green foxtail (Setaria viridis), 35 g ai/ha, read-out: Visual Growth Reduction (%) 21 Days After Application SETVI): 0 to 29%
- pest or weed control at 70 g/ha (SETVI green foxtail (Setaria viridis), 70 g ai/ha, read-out: Visual Growth Reduction (%) 21 Days After Application SETVI): 30 to 44%
- pest or weed control at 140 g/ha (SETVI green foxtail (Setaria viridis), 140 g ai/ha, read-out: Visual Growth Reduction (%) 21 Days After Application SETVI): 60 to 74%
